Reference: article PMC5045412, “Inhibition of pro-HGF activation by SRI31215, a novel approach to block oncogenic HGF/MET signaling” (Oncotarget, 2016)

Key:
Type in all cases: cell-based
HT29 cells = experiment: Viability of HT29 cells with EGFR inhibitor; conditions: HT29 cells (HGF-), gefitinib 5 μM; SRI 31215 10 μM, JNJ 38877605 1 μM
Experimental: (§1) Cell titer-glo luminescent cell viability assay kit was purchased from Promega. […] For clonogenic assay, cells were seeded in 6-well plates at a density of 400 cells per well, serum starved overnight, and treated as indicated. After colony formation (8-12 days), cells were stained with crystal violet and the number of colonies was determined using ImageQuantTL (GE Health Care Life Sciences).
Supplementary Figure S3: Inhibition of HGF/MET signaling sensitizes HGF-producing RKO colon cancer cells to gefitinib. A. RKO cells (HGF+) and B. HT29 (HGF-) cells were treated with gefitinib (5 μM) in the absence or the presence of SRI 31215 (10 μM) or JNJ 38877605 (1 μM) as indicated and viability was determined 24 and 72 hours after treatment. # indicates statistical significance compared to samples treated with gefitinib alone as determined by Students’ t-test (p<0.05).
(also on this page, place not known: www.impactjournals.com/oncotarget/ Oncotarget, Materials 2016 Supplementary (HGF +) (HGF -)) […]

DiFi cells [1] = experiment: Proliferation of DiFi cells induced by HGF or fibroblast conditioned medium; conditions: 48 hours; for fibroblast-induced proliferation: fibroblast conditioned medium
Experimental: Cell lysates from EBC cells were used as control for pMET. B. DiFi cells were cultured in the presence of
HGF or fibroblast conditioned medium in the absence or the presence of JNJ38877605 or SRI 31215 for 48 hours. Neutralization of HGF
in fibroblast conditioned medium by anti-HGF antibodies inhibits growth promoting activity of fibroblasts (data not shown). […]

DU145 cells [2] = experiment: EMT markers E-cadherin and vimentin (immunofluorescence, immunoblotting); conditions: 24 hours, SRI 31215 10 μM, JNJ 38877605 1 μM; for fibroblast-induced expression of vimentin / fibroblast-induced inhibition of E-cadherin: 18Co conditioned media
Experimental: Figure 3 SRI 31215 inhibits fibroblast-induced EMT in DU145 cells Cells were stimulated with HGF or 18Co conditioned media for 24 hours in the absence or presence of SRI 31215 (10 μM) or JNJ 38877605 (1 μM) as indicated. The expression of E-cadherin was monitored by immunofluorescence A. The levels of E-cadherin and vimentin were also determined by immunoblotting B.
(§2) Immunoblotting was performed using standard procedures. Membranes were blocked with 5% non-fat milk for 1 hour at RT, and incubated with primary antibodies overnight at 4°C. Primary antibodies used were anti-HGF (R&D Systems), anti-MET, anti-p-MET, anti-p-GAB1, anti-p-AKT, anti-p-ERK1/2, anti-vimentin (Cell Signaling Technology), anti-p-STAT3 (Upstate Cell Signaling Solutions), anti-E-cadherin (BD Transduction Laboratories), anti-β-actin (Sigma). Following washing with TBS-T buffer, membranes were incubated with horseradish peroxidase-conjugated secondary antibodies for 1 hour and then washed with TBS-T. Immunoblots were developed using the chemiluminescent detection system with ECL (Amersham). Protein loading was normalized by probing blots for the expression of β-actin.
Cells were seeded at 1×10^3 cells per well in chamber slides. Following overnight serum-starvation, cells were treated with recombinant HGF (10 ng/ml) or conditioned media prepared from fibroblasts (50%) in the presence or absence of SRI 31215 (10 μM) or JNJ 38877605 (1 μM) for 24 hours. Cells were washed with PBS, fixed in ice-cold methanol/acetic acid solution [95:5 (v/v)] for 20 minutes at-20°C and incubated with anti-E-cadherin antibodies overnight at 4°C. Slides were washed with PBS, incubated with Alexa Fluor 568 conjugated secondary antibody for 1 hour at 37°C and examined with a fluorescent microscope.

DiFi cells [3] = experiment: Caspase-Glo 3/7 Assay; conditions: fibroblast conditioned medium, 18h
Experimental: Figure 6 Fibroblasts inhibit the proapoptotic activity of EGFRi in an HGF-dependent manner A. and B. DiFi cells were treated with gefitinib (0.5 μM) or cetuximab (0.5 μg/ml) in the absence or the presence of conditioned medium from fibroblasts and SRI 31215 and JNJ 38877605 as indicated. The viability was determined after 72 hours. In B, fibroblast conditioned medium was incubated with anti HGF or anti-IL1β antibodies. C. and D. DiFi cells were treated with gefitinib (C) or cetuximab (D) in the presence of conditioned medium from fibroblasts and inhibitors of HGF/MET signaling as indicated for 18h. Caspase activity was assessed by the Caspase-Glo 3/7 Assay from Promega.
DiFi cells were seeded at a density of 20,000 cells/well in a 96 well plate and were treated with EGFRi in the absence or the presence of SRI 31215 or JNJ 38877605 for 18h. Caspase activity was assessed by the Caspase-Glo 3/7 Assay from Promega following the manufacturer's instructions.

DU145 cells [4] = experiment: Cell scattering assay; conditions: 24 hours, SRI 31215 10 μM; for fibroblast-induced cell scattering: 18Co conditioned media, JNJ 38877605 1 μM
Experimental: DU145 cells were cultured in 6-well tissue culture plates at a density of 1×10^3 cells per well. After colonies formed (6-8 days), cells were serum-starved overnight and were then treated with recombinant HGF (10 ng/ml) or with conditioned media from 18Co fibroblasts in the presence or absence of SRI 31215 (10 μM) or the MET kinase inhibitor JNJ 38877605 (1 μM) for 24 hours. Cells were washed with PBS and colonies were fixed and stained with 0.5% crystal violet solution in 6% glutaraldehyde.

DiFi cells [5] = experiment: DiFi cells co-cultured with WI38 fibroblasts, immunoblotting; conditions: gefitinib 0.5 μM, WI38 co-culture, SRI 31215 10 μM, JNJ38877605 1 μM
Experimental: Figure 7 Fibroblasts protect DiFi cells from EGFRi in an HGF-dependent manner DiFi cells were treated with gefitinib (0.5 μM) alone or were co-cultured with WI38 fibroblasts (FIB) in the absence or the presence of SRI 31215 (10 μM) or JNJ38877605 (1 μM). The DiFi cell lysates were isolated after 4 or 24 hours as indicated and examined for the expression of pERK and total ERK, pEGFR and total EGFR, cleaved PARP, β-catenin gelsolin and β-actin by immunoblotting.
as §2

Caco2 cells = experiment: Response of Caco2 cells to EGFR inhibitors with fibroblast conditioned medium; conditions: SRI 31215 10 μM, JNJ 38877605 1 μM; for response to cetuximab in the presence of fibroblast-derived CM: 18Co CM; for fibroblast-mediated resistance to gefitinib: 18Co conditioned medium
Experimental: Figure 5 Inhibitors of HGF/MET signaling prevent the innate and acquired resistance to cetuximab A. and B. RKO cells were treated with cetuximab (50 μg/ml) (A) of gefitinib (B) alone, or in combination with SRI 31215 (10 μM), JNJ 38877605 (1 μM) or recombinant HAI-1 (20 nM) as indicated and clonogenic growth was monitored as described in Materials and Methods. C. and D. Caco2 cells were treated with cetuximab or gefitinib alone or in the presence of CM from fibroblasts and SRI 31215 (10 μM) or JNJ 38877605 (1 μM) as indicated. #: p<0.05, compared to control (CTRL); NS: not significant.
as §1

Structure (SMILES)	response to EGFRi (HT29 cells)	proliferation induced by recombinant, active HGF (DiFi cells [1])	fibroblast-induced proliferation (DiFi cells [1])	fibroblast-induced expression of vimentin (DU145 cells [2])	fibroblast-induced inhibition of E-cadherin (DU145 cells [2])	expression of E-cadherin in HGF-treated cells (DU145 cells [2])	gefitinib-induced activation of caspase 3 and caspase 7 in the presence of fibroblasts (DiFi cells [3])	fibroblast-induced cell scattering (DU145 cells [4])	gefitinib-induced cleavage of PARP in the presence of fibroblasts (DiFi cells [5])	prosurvival activity of fibroblasts (EGFR and ERK phosphorylation under gefitinib) (DiFi cells [5])	response to cetuximab in the presence of fibroblast-derived CM (Caco2 cells)	fibroblast-mediated resistance to gefitinib (Caco2 cells)	scattering induced by active HGF (DU145 cells [4])
Cn1cc(-c2ccc3nnc(C(F)(F)c4ccc5ncccc5c4)n3n2)cn1 [JNJ 38877605, reference compound]	did not improve	prevented	prevented	prevented	prevented	restored	restored	prevented	restored	blocked	restored the response	overcame	–
CC1CN(CC2CCN(Cc3ccccc3)CC2)C(=O)N(c2cccc(C(=N)N)c2)C1 (stereo not drawn) [SRI 31215, 3-(3-((1-benzylpiperidin-4-yl)methyl)-5-methyl-2-oxotetrahydropyrimidin-1(2H)-yl)benzimidamide]	did not improve	did not influence	as efficient as JNJ 38877605 in preventing	prevented	prevented	–	restored	prevented	restored	blocked	restored the response	overcame	did not interfere
